Test system: HCT116 induced xenograft
Experiment: 21 days efficacy study in HCT116 induced xenograft model in mice
Assay type: in vivo
Conditions: 1004 5 mpk, epicatechin 30 mpk
Protocol: Anticancer potential of epicatechin in combination with a PI3K/mTOR inhibitor is evaluated against cancer xenograft model in immunocompromised mice. CD1 nude mice are dosed for a period of 21 days with vehicle control, PI3K/mTOR inhibitor and a combination of PI3K/mTORinhibitor and epicatechin. […] The results are presented at Table 2, Table 3 and FIGS. 1a and 1b.

With C[C@H]1COCCN1c1nc(Oc2ccc(C(=O)N(C)C)cc2F)nc(-c2ccc(N)nc2)n1 [Compound 1004, (S)-4-((4-(6-aminopyridin-3-yl)-6-(3-methylmorpholino)-1,3,5-triazin-2-yl)oxy)-3-fluoro-N,N-dimethylbenzamide] the “T/C % (Mean), Treated/Control on 21st day” value (CD1 nude mice, HCT116 xenograft, 21st day, oral) was 29%, the “TGI % (Mean), tumor growth inhibition” value (CD1 nude mice, HCT116 xenograft, dosed 21 days, oral) was 80% and the “Tumor weight” value (HCT116 xenograft in mice) was 0.72 g.

— patent US20190262347A1, “COMPOSITION COMPRISING COMBINATION OF EPICATECHIN AND ANTI-CANCER COMPOUND” (SPHAERA PHARMA PVT. LTD., priority 2016, published 2019)
